# According to patent US20250276993A1, “PSEUDO-DISACCHARIDE COMPOUNDS” (UNIVERSITEIT LEIDEN, priority 2022, published 2025):
# Assays:
# BpHep and AcGH79 = assay type: biochemical, B. pseudomallei; A. capsulatum; conditions: cABPP Assay 1
# HPSE [1] = biological target: T1, HPSE (Homo sapiens, UniProt Q9Y251); assay: cABPP Assay 1, recombinant HPSE; assay type: biochemical; conditions: 1 h preincubation at 37° C., pH 5.5, 100 nM ABP 7
# T1 sequence (Q9Y251 36-109 limits assumed): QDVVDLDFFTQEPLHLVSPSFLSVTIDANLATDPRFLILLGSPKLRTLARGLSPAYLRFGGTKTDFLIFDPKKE
# T1 sequence (Q9Y251 158-543 limits assumed): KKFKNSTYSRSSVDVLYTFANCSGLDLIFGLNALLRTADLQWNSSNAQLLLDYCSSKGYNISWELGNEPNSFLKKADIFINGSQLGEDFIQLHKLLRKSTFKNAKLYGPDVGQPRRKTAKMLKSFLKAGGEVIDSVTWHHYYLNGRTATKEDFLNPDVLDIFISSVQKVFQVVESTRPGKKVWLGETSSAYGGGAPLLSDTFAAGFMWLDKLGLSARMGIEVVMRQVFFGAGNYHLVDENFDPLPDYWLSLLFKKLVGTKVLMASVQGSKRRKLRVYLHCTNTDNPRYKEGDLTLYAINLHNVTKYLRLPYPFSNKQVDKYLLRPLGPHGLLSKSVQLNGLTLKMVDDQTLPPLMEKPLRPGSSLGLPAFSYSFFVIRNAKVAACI
# HPSE [2] = biological target: T1, HPSE; assay: X-ray crystallography, ligand soaking of HPSE crystals; conditions: crystal soaking
# Excerpt: Xray diffraction data were collected at 100 K at beamlines i03 (HPSE-2, HPSE-3, HPSE-4, EcGUSB-1, BpHep-3), i04 (AcGH79-2, BpHep-2) and i04-1 (Apo-AcGH79, AcGH79-1, AcGH79-3) of the Diamond Light Source UK. Reflections were autoprocessed using the XIA2 pipeline. Complexes were solved by directly refining against their unliganded structures where isomorphous, or else solved by molecular replacement with PHASER (search model PDB accessions: 5E98 (HPSE), 3VNY (AcGH79), 3K46 (EcGUSB), 5BWI (BpHep)). […] Ligand coordinates were built using jLigand. Diagrams were generated using PyMOL.
# HPSE—Well diffracting crystals of HPSE were obtained by the sitting-drop vapor-diffusion method at 20° C. using a well solution containing 0.1 M MES pH 5.5, 0.1 M MgCl2, 17% (w/v) PEG 3350, and a protein to well solution ratio of 200 nl:500 nl. Crystals typically appeared after 1 week. Inhibitor ligand complexes were obtained by transferring HPSE crystals to drops of well solution supplemented with 25% (v/v) ethylene glycol and 1-5 mM inhibitor. Crystals were incubated with ligand for ˜2-4 h, then directly harvested and flash-cooled in LN2 for data collection.
# To better understand the molecular basis of interaction between our inhibitors and their targets, we turned to X-ray crystallography, using ligand soaking to derivatize enzymes in crystallo.
# AcGH79 = AcGH79 (Acidobacterium capsulatum, UniProt C1F2K5); assay: in-gel competitive ABPP, recombinant AcGH79; assay type: biochemical, A. capsulatum; conditions: Cy5-tagged β-D-glucuronidase ABP read-out, at the tested enzyme concentration
# Method: (§1) ABP labelling reactions were carried out in Mcllvaine buffer (pH 5.5), 300 mM NaCl. For recombinant proteins 200 fmol of EcGH2, BpHep, AcGH79, HPSE or proHPSE was used (20 nM in 10 μl final reaction volume). For labeling cell lysates, 4-20 μg total protein was used. Labeling reactions were initiated by the addition of ABP compounds 7, 8 or 9 to a final concentration of 100 nM (unless otherwise specified), before incubation for 30 min at 37° C. with shaking. Following labeling, samples were denatured by boiling with Laemmli buffer for 5 min and resolved by SDS-PAGE. Gels were scanned using Typhoon-5 laser scanner platform (Cytiva), using the λEX 635 nm laser and 670BP30 emission filter. For competitive ABPP (cABPP) experiments, protein mixtures were preincubated with inhibitor (or buffer only control) for 1 h at 37° C. with shaking, before the addition of 7 to a final concentration of 100 nM, and subsequent incubation for 30 min at 37° C. with shaking. SDS-PAGE and analysis steps were carried out as above. For quantitative measurements, fluorescently labeled band intensities were calculated using Imagequant (Cytiva), and normalized to the corresponding band in the inhibitor free control lane. cABPP plots were prepared and analyzed using SigmaPlot 14.0 (Systat).
# (§2) Competitive activity of compounds 2, 12 and 13 were investigated using cABPP Assay 2.
# GUSB = biological target: T2, GUSB (Homo sapiens, UniProt P08236); assay: cABPP Assay 2, platelet lysates, GUSB; assay type: biochemical; conditions: preincubation with inhibitor
# T2 construct: Platelet lysates contain complex mixtures of overlapping enzyme activities, including both endo- and exo-β-glucuronidases HPSE and GUSB; endogenous in cells; host or cells: human platelet lysates
# T2 sequence (P08236 23-651): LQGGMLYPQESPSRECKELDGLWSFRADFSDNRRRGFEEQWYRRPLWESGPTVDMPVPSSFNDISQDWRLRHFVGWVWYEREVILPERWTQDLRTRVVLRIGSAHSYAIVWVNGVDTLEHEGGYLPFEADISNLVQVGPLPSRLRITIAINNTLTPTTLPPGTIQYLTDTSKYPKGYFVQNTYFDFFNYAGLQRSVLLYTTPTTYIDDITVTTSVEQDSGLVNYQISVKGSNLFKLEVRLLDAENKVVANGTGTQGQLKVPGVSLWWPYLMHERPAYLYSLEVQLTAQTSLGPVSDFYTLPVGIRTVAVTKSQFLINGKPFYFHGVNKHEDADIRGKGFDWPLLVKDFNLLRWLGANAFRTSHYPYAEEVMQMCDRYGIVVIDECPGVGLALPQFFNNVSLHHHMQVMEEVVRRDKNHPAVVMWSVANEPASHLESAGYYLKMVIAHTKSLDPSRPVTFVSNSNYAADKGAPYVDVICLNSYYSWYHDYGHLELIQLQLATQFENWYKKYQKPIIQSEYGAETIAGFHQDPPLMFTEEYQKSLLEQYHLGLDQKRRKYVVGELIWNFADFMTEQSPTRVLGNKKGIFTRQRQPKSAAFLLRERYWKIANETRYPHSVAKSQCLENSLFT
# Method: (§3) For further competitive ABPP studies, a working protein mixture was prepared by mixing the platelet lysates (87.5 μL), buffer (pH 5.0, 150 mM, 157.5 μL) and 3 M NaCl solution (35 μL). The enzymatic reactions were carried out at a constant concentration of read-out 7 (100 nM, final). For each inhibitor 2, 12 and 13, triplicate sets of ten 0.5 mL low protein binding Eppendorf tubes were prepared. Working solutions of each inhibitor (1% DMSO (w/v), 5 μL) in a range of ten concentrations (100, 50, 25, 12.5, 6.3, 3.1, 1.6, 0.8, 0.4, 0 μM) were prepared with MilliQ water and kept on ice. The working protein mixture (8 μL) was added in each protein low binding 0.5 mL Eppendorf tube, and 1 μL of inhibitor solution was added while on ice.
# (§4) Further cABPP studies were undertaken using platelet lysates to provide a more physiologically realistic environment. Platelet lysates contain complex mixtures of overlapping enzyme activities, including both endo- and exo-β-glucuronidases HPSE and GUSB respectively, thus provide a challenging environment to test inhibitor specificity.
# HPSE (platelet) = biological target: T3, HPSE (platelet) (Homo sapiens, UniProt Q9Y251); assay: cABPP Assay 2, platelet lysates, HPSE; assay type: biochemical; conditions: for IC50: apparent IC50, in-gel competitive ABPP-based assay, platelet lysate, read-out: In vitro IC50 HPSE (platelet); for inhibitor concentration down to which HPSE signal is abrogated: platelet lysates, preincubation with inhibitor
# T3 construct: endogenous in cells; host or cells: human platelet lysates
# T3 sequence (Q9Y251 158-543 limits assumed): T1 sequence (Q9Y251 158-543 limits assumed)
# T3 sequence (Q9Y251 36-109 limits assumed): T1 sequence (Q9Y251 36-109 limits assumed)
# Method: as §3, §4
# rHPSE = biological target: T4, rHPSE (Homo sapiens, UniProt Q9Y251); assay: in-gel competitive ABPP, recombinant HPSE; assay type: biochemical; conditions: for IC50: apparent IC50, in-gel competitive ABPP-based assay, read-out: In vitro IC50 rHPSE
# T4 sequence (Q9Y251 36-109 limits assumed): T1 sequence (Q9Y251 36-109 limits assumed)
# T4 sequence (Q9Y251 158-543 limits assumed): T1 sequence (Q9Y251 158-543 limits assumed)
# Method: as §1, §2
# To gain insight into HPSE structure-activity relationships, apparent HPSE inhibition was tested for cyclitol 12, its disaccharidic analogue 13 and parent HPSE inhibitor 2 (FIG. 7a). […] Conversely, 13 could inactivate rHPSE down to 2 μM inhibitor concentration similar to 2.
# HPSE [3] = biological target: T5, HPSE (Homo sapiens, UniProt Q9Y251); assay: fluorescent ABP labelling of whole cell lysates; assay type: biochemical
# T5 construct: fluorescent ABPs 7, 8 and 9 were applied to whole cell lysates from a panel of human cancer cell lines; endogenous in cells; host or cells: U87, PANC1, SKBR3, MDA-MB-231, HT1080, platelet lysates
# T5 sequence (Q9Y251 36-543): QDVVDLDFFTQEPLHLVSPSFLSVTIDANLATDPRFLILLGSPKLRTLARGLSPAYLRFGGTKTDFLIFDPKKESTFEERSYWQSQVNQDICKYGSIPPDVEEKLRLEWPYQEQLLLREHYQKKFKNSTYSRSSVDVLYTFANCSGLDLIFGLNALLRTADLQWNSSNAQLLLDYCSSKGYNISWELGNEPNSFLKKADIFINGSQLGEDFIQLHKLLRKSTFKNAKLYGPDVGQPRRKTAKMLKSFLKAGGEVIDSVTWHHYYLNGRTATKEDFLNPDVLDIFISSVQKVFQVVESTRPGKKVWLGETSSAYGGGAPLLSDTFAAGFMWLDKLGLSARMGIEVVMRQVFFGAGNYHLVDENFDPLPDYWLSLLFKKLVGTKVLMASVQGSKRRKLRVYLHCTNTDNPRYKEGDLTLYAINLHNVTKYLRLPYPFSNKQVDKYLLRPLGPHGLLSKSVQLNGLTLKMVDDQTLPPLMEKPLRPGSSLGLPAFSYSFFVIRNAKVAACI
# Method: as §1, with “(Systat). […]” for “(Systat).”
SMILES,HPSE inhibition (abrogation of labelling by ABP 7) (HPSE [1]),effect on GUS signals (GUSB),IC50 (HPSE (platelet)) [nM],inhibitor concentration down to which HPSE signal is abrogated (HPSE (platelet)) [µM],IC50 (rHPSE) [nM],other results
"NC1C(O)[C@H](O)C(CO)O[C@@H]1O[C@H]1C(O)C(O)[C@@H]2OC2C1C(=O)O (stereo partly drawn) [Compound 5, 4-O-(2-amino-2-deoxy-D-glucopyranosyl)-glucurono-cyclophellitol]",do not inhibit HPSE well,–,–,–,–,Inhibition of BpHep and AcGH79 (BpHep and AcGH79): all compounds apart from 5 showing activity
"O=C(O)C1C2O[C@H]2C(O)C(O)[C@@H]1O[C@@H]1CC(O)[C@H](O)C(CO)O1 (stereo partly drawn) [Compound 4, 4-O-(2-deoxy-D-glucopyranosyl)-glucurono-cyclophellitol]",inhibited HPSE at nanomolar concentrations,–,–,–,–,binding mode in HPSE active site cleft (HPSE [2]): covalent linkages between their pseudo-anomeric carbons and the enzyme nucleophile Glu343
"O=C(O)C1C2O[C@H]2C(O)C(O)[C@@H]1O[C@H]1CC(CO)[C@@H](O)C(O)C1O (stereo in doubt) [Compound 12, 4,5-dihydroxy-3-((2,3,4-trihydroxy-5-(hydroxymethyl)cyclohexyl)oxy)-7-oxabicyclo[4.1.0]heptane-2-carboxylic acid]",–,without altering GUS signals,400 ± 200,2.5,500 ± 500,IC50 (AcGH79): 1200 ± 300 nM
"[N-]=[N+]=NCC(=O)NC1C(O)[C@H](O)C(CO)O[C@@H]1O[C@H]1C(O)C(O)[C@@H]2OC2C1C(=O)O (stereo partly drawn) [Compound 6, 4-O-(2-N-azidoacetyl-2-deoxy-D-glucopyranosyl)-glucurono-cyclophellitol]",do not inhibit HPSE well,–,–,–,–,–
"O=C(O)C1C2O[C@H]2C(O)C(O)[C@@H]1O[C@H]1OC(CO)[C@@H](O)C(O)C1O (stereo in doubt) [Compound 13, 4,5-dihydroxy-3-((3,4,5-trihydroxy-6-(hydroxymethyl)tetrahydro-2H-pyran-2-yl)oxy)-7-oxabicyclo[4.1.0]heptane-2-carboxylic acid]",–,without altering GUS signals,5000 ± 1000,2.5,1000 ± 1000,inhibitor concentration down to which rHPSE is inactivated (rHPSE; in-gel competitive ABPP): 2 µM
"CC(=O)NC1[C@@H](O[C@@H]2C(C(=O)O)C3O[C@H]3C(O)[C@H]2O)OC(CO)[C@@H](OCCCCCCCCNC(=O)CCCCC[N+]2=C(/C=C/C=C/C=C3/N(C)c4ccccc4C3(C)C)C(C)(C)c3ccccc32)[C@@H]1O (stereo partly drawn) [Compound 9, 4-O-(2-N-acetyl-2-deoxy-4-O-(8-amino-Cy5-1-octyl)-α-D-glucopyranosyl)-glucurono-cyclophellitol]",–,–,–,–,–,"most substantial off-target (HPSE [3]; 10 μM ABP concentration): serum albumin; HPSE specificity of labelling (HPSE [3]; ABP at 1 μM and 10 μM, lysates of U87, PANC1, SKBR3, MDA-MB-231, HT1080, platelets): markedly improved HPSE specificity compared to both 7 and 8"
